The source made the active and inactive calls. No rule for the calls is given here.
Biological target: Bcl-2-related protein A1 (Homo sapiens) (UniProt Q16548)
Assay: Bfl-1/Bim complex disruptors – biochemical, multiplexed, bead-based flow cytometry, dose response (AID 1320); as to percent span (inhibition): test concentration not given here
Conditions: Bim peptide-Bfl-1 binding, fluorescence; for percent span (inhibition): hits give high values

Sequence of Bcl-2-related protein A1 (Homo sapiens) (Q16548 whole entry, looked up): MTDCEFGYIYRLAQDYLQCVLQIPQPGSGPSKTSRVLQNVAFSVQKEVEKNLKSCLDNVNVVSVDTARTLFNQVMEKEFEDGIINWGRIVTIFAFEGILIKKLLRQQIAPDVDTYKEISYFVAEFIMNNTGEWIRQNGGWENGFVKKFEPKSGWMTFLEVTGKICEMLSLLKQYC

CCCOc1ccc(-c2c(C(=O)N/N=C/c3ccc(OC)cc3)nnn2-c2nonc2N)cc1
percent span (inhibition): inactive

CCOC(=O)c1[nH]cnc1C(=O)NC(C)C
percent span (inhibition): inactive

COCCN=c1scc(-c2cccs2)n1/N=C/c1ccc(O)c(O)c1O
percent span (inhibition): inactive

COc1ccc2oc(-c3ccccc3)c(C(=O)N3CCOCC3)c2c1
percent span (inhibition): inactive

Cc1c(Cc2ccccc2)sc(N)c1C(N)=O
percent span (inhibition): inactive

O=C(CCc1ccccc1)N1CCN(c2ccccn2)CC1
percent span (inhibition): inactive

CCn1c(C)c(/C=N/Nc2nc3ccccc3s2)c2ccccc21
percent span (inhibition): inactive

Cc1ccccc1-n1nc(SCC(=O)O)sc1=S
percent span (inhibition): inactive

CC(=O)NC(=O)Nc1sc(=S)n(C)c1C
percent span (inhibition): inactive

S=C(Nc1ccccc1)N1CCn2cccc2C1c1cccnc1 (stereo unspecified)
percent span (inhibition): inactive

COc1ccc(N2C(=O)C(Cl)=C(Nc3c(C)n(C)n(-c4ccccc4)c3=O)C2=O)cc1
EC50: inactive

CC1=C2C(CCS2(=O)=O)CC2(C1)C(=O)OC(C)(C)OC2=O (stereo unspecified)
percent span (inhibition): inactive

O=C(Cn1cncc1-c1ccc([N+](=O)[O-])cc1)Nc1ccccc1F
percent span (inhibition): inactive

CCOc1ccc(NCc2ccccc2OCc2cccc(F)c2)cc1
percent span (inhibition): inactive

CCN(CC)c1ccc(NC(=O)COc2ccccc2C#N)cc1S(=O)(=O)Nc1ccccc1OC
percent span (inhibition): inactive

Cc1ccc(NC(=O)C/C(N)=N/OC(=O)c2ccccc2)cc1
percent span (inhibition): inactive

COCCN=c1scc(-c2ccco2)n1/N=C/c1ccc(O)c(O)c1O
percent span (inhibition): inactive

CCN1/C(=C/c2ccc3cc(C)cc(C)c3[n+]2CC)Sc2cc(C)ccc21
percent span (inhibition): inactive

NC(=O)CSc1nnc(Cn2cnc3ccccc32)o1
percent span (inhibition): inactive

CCOc1ccc2nc(SCC(=O)N3c4ccccc4Sc4ccccc43)c(C#N)cc2c1
percent span (inhibition): inactive

Cc1csc(SCCn2c(N3CCN(c4ccccc4)CC3)nc3c2c(=O)[nH]c(=O)n3C)n1
percent span (inhibition): inactive

COc1ccc(C2=Nn3c(nnc3-c3ccco3)SC2)cc1OC
percent span (inhibition): inactive

Cc1cc(C)c[n+](-c2nc3ccccc3nc2C(=C=[N-])C#N)c1
percent span (inhibition): inactive

COc1ccc(CC(=O)Nc2ccc3nc(C)sc3c2)cc1OC
percent span (inhibition): inactive

Cc1nc2ncccn2c1-c1csc(Nc2ccc(O)cc2)n1
percent span (inhibition): inactive

CCOC(=O)c1snc(-c2ccc(F)cc2)c1N
percent span (inhibition): inactive

O=C(O)CCN1C(=O)/C(=C\c2ccc(-c3nc4ccccc4s3)o2)SC1=S
percent span (inhibition): inactive

O=C1NC(=O)C2(Cc3c(nc4ccccn4c3=O)N3CCCCCC32)C(=O)N1Cc1ccccc1 (stereo unspecified)
percent span (inhibition): inactive

COc1ccc(C2(NC(C)=O)CCN(C(=O)c3ccco3)CC2)cc1
percent span (inhibition): inactive

COc1ccccc1OCc1ccc(C(=O)Nc2ccccc2F)cc1
percent span (inhibition): inactive

CC(NC(=O)Nc1ccccn1)N1C(=O)C2C3C=CC(C3)C2C1=O (stereo unspecified)
percent span (inhibition): inactive

CCN1/C(=C/c2ccc3cc(C)ccc3[n+]2CC)Sc2cc(C)c(C)cc21
percent span (inhibition): inactive

O=c1nc2c(O)cccn2c2c1c(=O)[nH]c1ccccc12
percent span (inhibition): inactive

Cc1[nH]nc(SCC(=O)NCc2ccc(F)cc2)c1[N+](=O)[O-]
percent span (inhibition): inactive

O=C(OCc1cnc(Cl)s1)c1cccc(Cl)c1Cl
percent span (inhibition): inactive

Cc1ccc2nc3c(cc(C(N)=S)c(=N)n3CCCOC(C)C)c(=O)n2c1
percent span (inhibition): inactive

Cc1cccc(/C=N/N(CCO)C2=NS(=O)(=O)c3ccccc32)c1
percent span (inhibition): inactive

O=[N+]([O-])c1ccc(N/N=C/c2ccc(O)c(O)c2O)c(S(=O)(=O)N2CCOCC2)c1
EC50: 4.48 µM

COc1cccc(/C=N/NC(=O)c2cc3cc([N+](=O)[O-])ccc3s2)c1O
percent span (inhibition): inactive

C/C(=N\NC(=O)COc1ccc(C#N)cc1)c1ccccc1OC(F)F
percent span (inhibition): inactive

NC(=O)c1sc2nc3c(c(-c4ccco4)c2c1N)CCC3
percent span (inhibition): inactive

CCOC(=O)c1c2c3c(c(Cl)ccc3[nH]c1=O)C(=O)c1ccccc1-2
percent span (inhibition): inactive

Cc1ccc(-c2cc(C(=O)Nc3cccnc3)c3ccccc3n2)o1
percent span (inhibition): inactive

CCOc1c(Cl)cc(CNc2ccc(N3CCCC3)cc2)cc1OC
percent span (inhibition): inactive

COc1cccc2c(SCC(=O)N/N=C/c3ccc(O)c(O)c3)cc(C)nc12
percent span (inhibition): inactive

COCCn1nnnc1CN(Cc1ccco1)Cc1cc2cc3c(cc2[nH]c1=O)OCO3
percent span (inhibition): inactive

Cc1cc(C(=O)NCCCN(C)C)c2ccccc2n1
percent span (inhibition): inactive

COc1ccc(N2CCN(C(=O)c3cc(=O)[nH]c4ccccc34)CC2)cc1
percent span (inhibition): inactive

Cc1ccc(SCCC(=O)Nc2ccc(Br)c(C)c2)cc1
percent span (inhibition): inactive

COc1ccc(NC(=O)c2ccco2)cc1NC(=O)c1ccco1
percent span (inhibition): inactive

CN=C(NC1CCCCC1)c1ccc(Cl)cc1
percent span (inhibition): inactive

Cn1c(=O)c2cc(S(=O)(=O)Nc3cc(C(=O)O)cc(C(=O)O)c3)ccc2n(C)c1=O
percent span (inhibition): inactive

NNC(=O)COc1ccccc1F
percent span (inhibition): inactive

COC(=O)CSc1nccc(-c2cccs2)n1
percent span (inhibition): inactive

OC(COc1ccc2cc(Br)ccc2c1)CN1CCOCC1 (stereo unspecified)
percent span (inhibition): inactive

Cc1ccc(C(=O)NNC(=O)c2ccc3ncccc3c2)cc1
percent span (inhibition): inactive

CN(/N=C/c1ccncc1)C1=NS(=O)(=O)c2ccccc21
percent span (inhibition): inactive

COC(=O)c1ccc(/C=N/NC(=O)CC(=O)NCc2cccnc2)cc1
percent span (inhibition): inactive

Cc1onc(-c2ccccc2Cl)c1C(=O)Nc1nn[nH]n1
percent span (inhibition): inactive

FC(F)(F)c1ccc2c(c1)C1C=CCC1C(c1ccncc1)N2 (stereo unspecified)
percent span (inhibition): inactive

COc1ccc(N2CCN(CCCNC(=O)CCCn3c(=O)[nH]c4ccsc4c3=O)CC2)cc1
percent span (inhibition): inactive

COc1cc(N2CCOCC2)ccc1C=C1C(=O)NC(=O)NC1=O
percent span (inhibition): inactive

Cc1cc(N2CCN(C)CC2)nc2ccc(NC(=S)N3CCC4(CC3)OCCO4)cc12
percent span (inhibition): inactive

COc1ccc(-c2noc(COc3ccc4c(c3)OCO4)n2)cc1OC
percent span (inhibition): inactive

O=C(NC1=C(Nc2ccc(F)cc2)C(=O)c2ccccc2C1=O)c1ccc(Cl)cc1
percent span (inhibition): inactive

CCN1CCN(c2cc(C)c3cc(NC(=S)N4CCN(c5ccc(F)cc5)CC4)ccc3n2)CC1
percent span (inhibition): inactive

COc1cccc(NC(=O)CSc2nncn2N)c1
percent span (inhibition): inactive

O=C(NCc1ccco1)C1CC2CCC1C2 (stereo unspecified)
percent span (inhibition): inactive

CN(CC(=O)O/N=C(\N)c1ccc([N+](=O)[O-])cc1)S(=O)(=O)c1ccccc1
percent span (inhibition): inactive

Nc1ccc(N2CCCCCC2)cc1
percent span (inhibition): inactive

CCCn1c(SCC(=O)Nc2ccccc2-c2ccccc2)nnc1-c1ccoc1C
percent span (inhibition): inactive

Cc1ccc(C)c(NC(=O)C(=O)NCc2ccccn2)c1
percent span (inhibition): inactive

O=C(Nc1ccccc1)Nc1ccc2ncoc2c1
percent span (inhibition): inactive

O=C(Nc1ccccc1N1CCOCC1)c1cccs1
percent span (inhibition): inactive

CN(/N=C/C=C/c1ccccc1)C1=NS(=O)(=O)c2ccccc21
percent span (inhibition): inactive

CN1CCN(c2ccccc2N)CC1
percent span (inhibition): inactive

CN1CCS/C1=C/C=C1/SC(=S)N(Cc2ccccc2)C1=O
percent span (inhibition): inactive

Cc1cccc(N2C(S)=C(C#N)C(=O)NC2c2cccs2)c1 (stereo unspecified)
EC50: inactive

Cc1cccc(-n2c(O)c(/C=N/N3CCOCC3)c(=O)[nH]c2=S)c1
percent span (inhibition): inactive

O=C(Nc1cccc(Cl)c1)Nc1ccnc(-c2cccnc2)n1
percent span (inhibition): inactive

CC1Nc2ccccc2C(=O)N1NS(C)(=O)=O (stereo unspecified)
percent span (inhibition): inactive

COc1cc(NC(=S)NC(=O)c2cc(C)cc(C)c2)ccc1NC(=O)c1cccs1
percent span (inhibition): inactive

O=C(COC(=O)c1ccccn1)NC1CCCCC1
percent span (inhibition): inactive

Oc1ccc(C=NCC2COc3ccccc3O2)cc1 (stereo unspecified)
percent span (inhibition): inactive

CC(=O)Nc1ccc(NC2=C(Cl)C(=O)c3ccccc3C2=O)cc1
percent span (inhibition): inactive

COc1ccccc1Nc1nc(-c2c(C)nc3ncccn23)cs1
percent span (inhibition): inactive

COc1cccc2c(SCC(=O)N/N=C/c3ccccc3)cc(C)nc12
percent span (inhibition): inactive

Cc1ccc(-c2nnc(Cc3ccc(Cl)cc3)o2)cc1
percent span (inhibition): inactive

Cc1cccc(-c2nnc3n2N=C(c2ccccc2)CS3)c1
percent span (inhibition): inactive

Cc1cc(NC(=O)CCSc2ccccc2)ccc1Br
percent span (inhibition): inactive

CNc1ccc(Br)cc(C(=O)/C=C/c2ccc(OC)cc2OC)c1=O
percent span (inhibition): inactive

COc1cccc(N2CC(C(=O)Nc3nnc(SCC(=O)c4ccccc4)s3)CC2=O)c1 (stereo unspecified)
percent span (inhibition): inactive

CCOC(=O)c1ccc(NC(=O)CSCCC(=O)O)cc1
percent span (inhibition): inactive

Cc1cc(N2CCN(C)CC2)nc2ccc(NC(=S)N3CCN(c4cccc(Cl)c4)CC3)cc12
percent span (inhibition): inactive

Cc1ccc(C)n1-c1cccc(C(=O)O)c1
percent span (inhibition): inactive

Cc1cc(C)c2nc3nc(C)c(C)cc3c(N)c2c1
percent span (inhibition): inactive

O=C(c1cccc(Br)c1)N1CCN(c2cnn(-c3ccccc3)c(=O)c2Cl)CC1
percent span (inhibition): inactive

Clc1ccc2c(N/N=C/c3ccc(Br)cc3)ccnc2c1
percent span (inhibition): inactive

Cc1cc(-c2csc(N)n2)c(C)n1CCc1ccccc1
percent span (inhibition): inactive

COc1cc(/C=C2\SC(=S)NC2=O)ccc1OS(=O)(=O)c1ccccc1
percent span (inhibition): inactive

Cc1ccc(C2=N/C(=C/c3cccs3)C(=O)N2Nc2ccccc2)cc1
percent span (inhibition): inactive

— PubChem BioAssay AID1320 (NMMLSC, 2008)
